Activity calls are given as the source filed them. No cut-off for these calls is given here.
Experiments:
[1] = target: T1, Histamine H4 receptor (Homo sapiens, UniProt Q9H3N8); assay: Displacement of [3H]histamine from human histamine 4 receptor expressed in Sf9 cell membranes by liquid scintillation counting
[2] = target: Histamine H1 receptor (Homo sapiens, UniProt P35367); assay: Displacement of [3H]mepyramine from human histamine 1 receptor expressed in Sf9 cell membranes by liquid scintillation counting
[3] = target: T1, Histamine H4 receptor; assay: Antagonist activity at human histamine 4 receptor expressed in Sf9 cell membranes co-expressing Galphai2 and Gbeta1gamma2 assessed as [35S]GTPgammaS binding by scintillation counting; format: functional
[4] = target: Histamine H2 receptor (Homo sapiens, UniProt P25021); assay: Displacement of [3H]UR-DE257 from human histamine 2 receptor expressed in Sf9 cell membranes by liquid scintillation counting
[5] = target: T1, Histamine H4 receptor; assay: Antagonist activity at human histamine 4 receptor expressed in Sf9 cell membranes co-expressing Galphai2 and Gbeta1gamma2 assessed as [35S]GTPgammaS binding by scintillation counting relative to control histamine; format: functional
[6] = target: Histamine H3 receptor (Homo sapiens, UniProt Q9Y5N1); assay: Displacement of [3H]Nalpha-methylhistamine from human histamine 3 receptor expressed in Sf9 cell membranes by liquid scintillation counting
Chain of Histamine H3 receptor (Q9Y5N1 whole entry): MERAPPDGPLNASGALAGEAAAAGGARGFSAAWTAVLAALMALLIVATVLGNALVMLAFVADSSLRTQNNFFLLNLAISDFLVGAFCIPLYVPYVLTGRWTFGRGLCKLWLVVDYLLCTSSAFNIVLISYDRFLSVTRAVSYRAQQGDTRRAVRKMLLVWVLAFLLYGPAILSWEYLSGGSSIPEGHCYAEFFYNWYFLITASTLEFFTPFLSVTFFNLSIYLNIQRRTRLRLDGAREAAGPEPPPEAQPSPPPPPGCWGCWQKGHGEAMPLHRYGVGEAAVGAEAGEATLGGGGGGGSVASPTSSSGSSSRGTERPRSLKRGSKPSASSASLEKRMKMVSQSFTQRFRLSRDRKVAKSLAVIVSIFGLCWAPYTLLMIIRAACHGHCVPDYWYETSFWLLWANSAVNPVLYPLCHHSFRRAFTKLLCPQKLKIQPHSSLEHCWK

Chain of Histamine H1 receptor (P35367 whole entry): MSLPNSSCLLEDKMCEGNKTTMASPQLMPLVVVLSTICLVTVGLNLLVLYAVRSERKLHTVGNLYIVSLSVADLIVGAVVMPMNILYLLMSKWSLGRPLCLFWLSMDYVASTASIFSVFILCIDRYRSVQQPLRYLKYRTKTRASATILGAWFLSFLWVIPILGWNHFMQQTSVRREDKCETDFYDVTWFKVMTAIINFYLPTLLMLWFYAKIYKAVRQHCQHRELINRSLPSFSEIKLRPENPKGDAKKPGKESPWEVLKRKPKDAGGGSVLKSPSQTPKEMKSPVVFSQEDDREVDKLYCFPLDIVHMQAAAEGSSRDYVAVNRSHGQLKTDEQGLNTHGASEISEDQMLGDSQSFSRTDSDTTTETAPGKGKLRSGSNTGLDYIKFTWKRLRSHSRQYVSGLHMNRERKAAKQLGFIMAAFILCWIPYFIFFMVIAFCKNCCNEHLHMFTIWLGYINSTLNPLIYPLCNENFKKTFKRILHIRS
Chain of Histamine H2 receptor (P25021 whole entry): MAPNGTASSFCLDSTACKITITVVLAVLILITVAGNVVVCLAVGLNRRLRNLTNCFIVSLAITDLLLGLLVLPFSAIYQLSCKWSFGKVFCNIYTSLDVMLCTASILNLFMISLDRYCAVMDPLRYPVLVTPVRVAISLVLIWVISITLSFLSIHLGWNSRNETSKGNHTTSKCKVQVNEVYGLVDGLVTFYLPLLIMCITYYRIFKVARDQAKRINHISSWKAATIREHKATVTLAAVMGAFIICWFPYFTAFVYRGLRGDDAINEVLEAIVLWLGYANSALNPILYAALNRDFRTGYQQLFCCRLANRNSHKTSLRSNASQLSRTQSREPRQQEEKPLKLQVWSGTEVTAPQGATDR
T1 sequence (Q9H3N8 whole entry): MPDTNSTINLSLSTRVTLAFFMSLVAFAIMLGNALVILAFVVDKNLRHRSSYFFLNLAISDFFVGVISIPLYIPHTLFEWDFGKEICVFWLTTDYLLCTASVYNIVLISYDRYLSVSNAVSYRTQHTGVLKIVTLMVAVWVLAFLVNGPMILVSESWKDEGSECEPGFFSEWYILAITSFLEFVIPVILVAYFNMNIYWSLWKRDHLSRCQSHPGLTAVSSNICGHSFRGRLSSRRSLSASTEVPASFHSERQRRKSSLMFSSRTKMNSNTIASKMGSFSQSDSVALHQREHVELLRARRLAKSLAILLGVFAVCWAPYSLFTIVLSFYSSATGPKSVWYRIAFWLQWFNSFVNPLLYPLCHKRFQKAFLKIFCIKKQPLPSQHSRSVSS

Structure (SMILES) | Ki [1] | Ki [2] | other results
Cc1ccc(CNc2nc3c(c(N4CCN(C)CC4)n2)CCc2ccccc2-3)cc1 | 20 µM | 3.39 µM | –
CN1CCN(c2cc(-c3ccccc3)nc(NCCc3ccccc3)n2)CC1 | 9.77 µM | 3.31 µM | –
CN1CCN(C2=Nc3ccc(Cl)cc3Oc3ccccc32)CC1 | – | 0.00832 µM | –
CN1CCN(c2nc(NCc3ccccc3)c3c(n2)-c2ccccc2CC3)CC1 | 14.5 µM | 0.891 µM | –
COc1ccc(CNc2nc(N3CCN(C)CC3)nc3c2CCc2ccccc2-3)cc1-c1ccc(Cl)cc1 | 19.5 µM | 6.31 µM | –
COc1ccc(CNc2nc3c(c(N4CCN(C)CC4)n2)CCc2ccccc2-3)cc1 | 4.27 µM | 5.75 µM | –
CN1CCN(c2nc(NCc3ccc(F)cc3)nc3c2CCc2ccccc2-3)CC1 | 11 µM | 1.95 µM | –
CN1CCN(c2nc(NCc3ccccc3)nc3c2CCc2ccccc2-3)CC1 | 1.58 µM | 2.09 µM | EC50 [3]: 0.933 µM; Ki [4]: 6.92 µM; Ratio [5]: -1.01; Ki [6]: 6.03 µM
CN1CCN(c2nc(NCCc3ccccc3)c3c(n2)-c2ccccc2CC3)CC1 | 15.1 µM | 8.13 µM | –
COc1ccc(CNc2nc3c(c(N4CCN(C)CC4)n2)-c2ccccc2CC3)cc1 | 13.8 µM | 1.07 µM | –
CN1CCN(c2nc(NCCc3ccccc3)nc3c2-c2ccccc2CC3)CC1 | 6.76 µM | 1.86 µM | –
CN1CCN(c2nc(NCCc3ccccc3)cc(-c3ccccc3)n2)CC1 | 36.3 µM | 1.95 µM | –
CN1CCN(c2nc3c(c(N4CCN(C)CC4)n2)-c2ccccc2CC3)CC1 | 7.76 µM | 1.17 µM | –
CN1CCN(c2nc(NCCc3ccccc3)nc3c2CCc2ccccc2-3)CC1 | 9.12 µM | 9.33 µM | –
CN1CCN(c2nc(NCc3ccccc3)nc3c2-c2ccccc2CC3)CC1 | 26.3 µM | 1.91 µM | –
COc1ccc(CNc2nc(-c3ccccc3)cc(N3CCN(C)CC3)n2)cc1 | 1.74 µM | 5.25 µM | –
COc1ccc(CNc2cc(-c3ccccc3)nc(N3CCN(C)CC3)n2)cc1 | 72.4 µM | 4.17 µM | –
CN1CCN(c2nc(NCc3cccs3)c3cc(Cl)ccc3n2)CC1 | – | 0.55 µM | –
CN1CCN(c2nc(NCc3ccccc3)cc(-c3ccccc3)n2)CC1 | 31.6 µM | 2.51 µM | –
CN1CCN(c2cc(-c3ccccc3)nc(NCc3ccccc3)n2)CC1 | 0.955 µM | 1.12 µM | EC50 [3]: 0.912 µM; Ki [4]: 10.2 µM; Ratio [5]: -1.27; Ki [6]: 2.51 µM
CN1CCN(c2nc(N)nc3c2CCc2ccccc2-3)CC1 | 0.186 µM | 9.12 µM | EC50 [3]: 0.295 µM; Ki [4]: 31.6 µM; Ratio [5]: -0.47; Ki [6]: 9.77 µM
COc1ccc(CNc2cc(-c3ccccc3)nc(N(C)C)n2)cc1 | – | – | pKi [1]: inactive; pKi [2]: inactive
CN(C)c1nc(NCCc2ccccc2)cc(-c2ccccc2)n1 | – | – | pKi [1]: inactive; pKi [2]: inactive

Source: ChEMBL document CHEMBL3751732 (Bioorg Med Chem Lett, 2016)
